For orientation: IC50 means the concentration needed to halve the response being measured. The inhibition is the drop in the measured response relative to a control, in per cent. What is called melting point is the temperature of the solid-liquid transition.

The source of these data is publication PMC6470675, “Design and Synthesis of New Quinoxaline Derivatives as Anticancer Agents and Apoptotic Inducers” (Molecules, 2019).

The target in data set [1] is T1, VEGFR-2 (Homo sapiens, UniProt P35968).
T1 construct: purchased Bio Science Corporation (BPS), San Diego, CA, USA
The conditions noted are these: cited from earlier work.

The subject of data set [2] is fibroblast-like fetal lung cell line (WI-38). As to the kind of experiment: In vitro MTT cytotoxicity assay on normal WI-38 cells. For orientation: Tetrazolium dyes change colour on reduction, which living cells bring about.
Description: Cell Line cells were obtained from American Type Culture Collection, cells were cultured using DMEM (Invitrogen/Life Technologies, Waltham, MA, USA) supplemented with 10% FBS (Hyclone, Waltham, MA, USA), 10 μg/mL of insulin (Sigma), and 1% penicillin-streptomycin. All of the other chemicals and reagents were from Sigma, or Invitrogen. Plate cells (cells density 1.2–1.8 × 10,000 cells/well) in a volume of 100 µL complete growth medium + 100 μL of the tested compound per well in a 96-well plate for 24 h before the MTT assay.
The test system of data set [3] is HCT116 human colon carcinoma cell line. As to the kind of experiment: In vitro cell proliferation (MTT) assay, HCT116. The conditions noted are these: Homo sapiens, HCT-116; MTT, 72 h exposure. Type of data set: cell-based. Here is the method: (§1) The targeted compounds were tested for their in-vitro anti-cancer activity against three tumor cell lines (HCT116, Hep G2 and MCF-7). Doxorubicin was included in the experiments as a reference cytotoxic compound. Exponentially growing cells from different cancer cell lines were trypsinized, counted and seeded at the appropriate densities into 96-well microtiter plates. Cells then were incubated in a humidified atmosphere at 37 °C for 24 h. Then, cells were exposed to different concentrations of compounds for 72 h. Then the viability of treated cells was determined using MTT technique (described latter).
(§2) Three cancer cell lines including human colon carcinoma (HCT116), human breast adenocarcinoma (MCF-7) and human hepatocellular carcinoma (Hep G2), were purchased from American Type Cell Culture Collection (ATCC, Manassas, VA, USA) and grown on the appropriate growth medium Dulbecco’s modified Eagle’s medium (DMEM) or Roswell Park Memorial Institute medium (RPMI 1640) supplemented with […] of streptomycin, 100 units/mL of penicillin and 10% of heat-inactivated fetal bovine serum in a humidified, 5% (v/v) CO2 atmosphere at 37 °C [34]. Cytotoxicity assay by 3-[4,5-dimethylthiazole-2-yl]-2,5-diphenyltetrazolium bromide (MTT).
(§3) Exponentially growing cells from different cancer cell lines were trypsinized, counted and seeded at the appropriate densities (2000–1000 cells/0.33 cm^2 well) into 96-well microtiter plates. Cells then were incubated in a humidified atmosphere at 37 °C for 24 h. Then, cells were exposed to different concentrations of compounds (0.1, 10, 100, 1000 µM) for 72 h. Then the viability of treated cells was determined using MTT technique as follow. Media were removed; cells were incubated with 200 μL of 5% MTT solution/well (Sigma Aldrich, Darmstadt, Germany) and were allowed to metabolize the dye into a colored-insoluble formazan crystal for 2 h. The remaining MTT solution were discarded from the wells and the formazan crystals were dissolved in 200 µl/well acidified isopropanol for 30 min, covered with aluminum foil and with continuous shaking using a MaxQ 2000 plate shaker (Thermo Fisher Scientific Inc, Waltham, MA, USA) at room temperature. Absorbance were measured at 570 nm using a Stat Fax^R 4200 plate reader (Awareness Technology, Inc., Awareness Technology, FL, USA). The cell viability was expressed as percentage of control and the concentration that induces 50% of maximum inhibition of cell proliferation (IC50) were determined using Graph Pad Prism version 5 software (Graph Pad Software Inc, San Diego, CA, USA) (1,2).

In data set [4] the test system is HCT116 cells. Description: Cell cycle analysis by flow cytometry. Format: cell-based, human. The conditions noted are these: 2.5 µM. How it is done: The effect of compound VIIIc on the normal cell cycle progression was characterized using flow cytometric analysis of the DNA ploidy in HCT116 cells Figure 3. […] The observed increase in pre-G cell population may imply DNA fragmentation and apoptosis as a potential mechanism for VIIIc-induced cancer cell death.
HCT116 cells at a density of 4 × 10^6 cell/T 75 flask were exposed to 1-(4-Chlorophenyl)-3-(4-((3-methylquinoxalin-2-yl)amino)phenyl)urea VIIIc at its IC50 concentration for 24 and 48 h. The cells then were collected by trypsinization, washed with phosphate buffered saline (PBS), and fixed in ice-cold absolute alcohol. Thereafter, cells were stained, using Cycle test ^TM Plus DNA Reagent Kit (BD Biosciences, San Jose, CA, USA), according to the manufacturer’s instructions. Cell cycle distribution was determined using a FACS Calibur flow cytometer (BD Biosciences).
A general note: Flow cytometry measures light scatter and fluorescence of single cells or particles in a stream.

Data set [5] relates to three tumor cell lines (HCT116, Hep G2 and MCF-7). As to the kind of experiment: In vitro anti-cancer activity stated for the tested cell lines together. The conditions noted are these: HCT116, Hep G2 and MCF-7 together. Format: cell-based, human. How it is done:
as §1, §2
Exponentially growing cells from different cancer cell lines were trypsinized, counted and seeded at the appropriate densities (2000–1000 cells/0.33 cm^2 well) into 96-well microtiter plates. Cells then were incubated in a humidified atmosphere at 37 °C for 24 h. Then, cells were exposed to different concentrations of compounds (0.1, 10, 100, 1000 µM) for 72 h. Then the viability of treated cells was determined using MTT technique as follow. Media were removed; cells were incubated with 200 μL of 5% MTT solution/well (Sigma Aldrich, Darmstadt, Germany) and were allowed to metabolize the dye into a colored-insoluble formazan crystal for 2 h. […] Absorbance were measured at 570 nm using a Stat Fax^R 4200 plate reader (Awareness Technology, Inc., Awareness Technology, FL, USA). […]

Data set [6] has as its system MCF-7 human breast adenocarcinoma cell line. Description: In vitro cell proliferation (MTT) assay, MCF-7. The conditions noted are these: Homo sapiens, MCF7; MTT, 72 h exposure. Format: cell-based. Here is the method: as §1, §2, §3
Data set [7] concerns Hep G2 human hepatocellular carcinoma cell line. As to the kind of experiment: In vitro cell proliferation (MTT) assay, Hep G2. Type of data set: cell-based. The conditions noted are these: for IC50: Homo sapiens, HepG2, MTT, 72 h exposure. Here is the method: as §1, §2, §3
Data set [8] relates to HCT116 cells. As to the kind of experiment: Annexin V-FITC/PI apoptosis determination. Type of data set: cell-based, human. To be noted: IC50 (2.5 µM), 24 h and 48 h, compared to DMSO treated cells. An excerpt:
For further investigation of the ability of compound VIIIc to induce apoptosis, an Annexin V (conjugated to FITC) apoptosis detection kit was employed. This assay detects phosphatidylserine (PS) expressed on the surface of apoptotic cells and fluoresces green after interacting with the labeled annexin V. During early apoptosis, membrane asymmetry is lost, and PS translocates from the cytoplasmic side of the membrane to the external leaflet. Propidium iodide (PI), the counterstain used in this assay, has the ability to cross only compromised membranes to intercalate into the DNA. Therefore, PI is used to detect the late stages of apoptosis by presence of red fluorescence.
Apoptosis was determined by staining cells with Annexin V–fluorescein isothiocyanate (FITC) and counterstaining with propidium iodide (PI) using the Annexin V–FITC/PI apoptosis detection kit (BD PharMingen, San Diego, CA, USA) according to the manufacturer’s instructions. Briefly, 4 × 10^6 cell/T 75 flask were exposed to compound VIIIc at its IC50 concentration for 24 and 48 h. The cells then were collected by trypsinization and 0.5 × 10^6 cells were washed twice with phosphate-buffered saline (PBS) and stained with 5 μL Annexin V–FITC and 5 μL PI in 1× binding buffer (BD PharMingen) for 15 min at room temperature in the dark. Analyses were performed using FACS Calibur flow cytometer (BD Biosciences).

The target in data set [9] is T1, VEGFR-2. Description: In vitro VEGFR-2 inhibition assay (Kinase-Glo Plus luminescence). Type of data set: biochemical. The conditions noted are these: for inhibition at 10 µM: single concentration of 10 µM, read-out: % of VEGFR-2 Inhibition. Here is the method:
In an attempt to investigate the possible mechanism of action of the synthesized compounds based on structural similarity with sorafenib, all of them were tested for VEGFR-2 inhibitory activity at Bio Science Corporation (BPS, San Diego, CA, USA). The assay was performed using the Kinase-Glo Plus luminescence kinase assay kit (Promega, San Diego, CA, USA). It measures kinase activity by quantitating the amount of ATP remaining in solution following a kinase reaction. […].
The in-vitro enzyme inhibition determination for the synthesized compounds was carried out at Bio Science Corporation (BPS)-San Diego, CA, USA. The assay was performed using Kinase-Glo Plus luminescence kinase assay kit (Promega), where the kinase activity was measured by quantitating the amount of ATP remaining in solution following a kinase reaction. The luminescent signal from the assay is correlated with the amount of ATP present and is inversely correlated with the amount of kinase activity. Our compounds were diluted with 10% DMSO and 5 µL of the dilution was added to a 50 µL reaction so that the final concentration of DMSO is 1% in all of reactions. All of the enzymatic reactions were conducted at 30 °C for 40 min. The 50 µL reaction mixture contains 40 mM Tris, pH 7.4, 10 mM MgCl2, 0.1 mg/mL BSA, 1 mM DTT, 10 µM ATP, Kinase substrate and the enzyme. After the enzymatic reaction, 50 µL of Kinase-Glo Plus Luminescence kinase assay solution (Promega San Diego, CA, USA) was added to each reaction and incubate the plate for 5 min at room temperature. Luminescence signal was measured using a BioTek Synergy 2 microplate reader.
Kinase activity assays were performed in duplicate at each concentration. The luminescence data were analyzed using the computer software, Graphpad Prism. The difference between luminescence intensities in the absence of Kinase (Lut) and in the presence of Kinase (Luc) was defined as 100% activity (Lut − Luc). Using luminescence signal (Lu) in the presence of the compound, % activity was calculated as:% activity = {(Lut − Lu)(Lut − Luc)} × 100% where Lu = the luminescence intensity in the presence of the compound.

T1 sequence (P35968 20-1356): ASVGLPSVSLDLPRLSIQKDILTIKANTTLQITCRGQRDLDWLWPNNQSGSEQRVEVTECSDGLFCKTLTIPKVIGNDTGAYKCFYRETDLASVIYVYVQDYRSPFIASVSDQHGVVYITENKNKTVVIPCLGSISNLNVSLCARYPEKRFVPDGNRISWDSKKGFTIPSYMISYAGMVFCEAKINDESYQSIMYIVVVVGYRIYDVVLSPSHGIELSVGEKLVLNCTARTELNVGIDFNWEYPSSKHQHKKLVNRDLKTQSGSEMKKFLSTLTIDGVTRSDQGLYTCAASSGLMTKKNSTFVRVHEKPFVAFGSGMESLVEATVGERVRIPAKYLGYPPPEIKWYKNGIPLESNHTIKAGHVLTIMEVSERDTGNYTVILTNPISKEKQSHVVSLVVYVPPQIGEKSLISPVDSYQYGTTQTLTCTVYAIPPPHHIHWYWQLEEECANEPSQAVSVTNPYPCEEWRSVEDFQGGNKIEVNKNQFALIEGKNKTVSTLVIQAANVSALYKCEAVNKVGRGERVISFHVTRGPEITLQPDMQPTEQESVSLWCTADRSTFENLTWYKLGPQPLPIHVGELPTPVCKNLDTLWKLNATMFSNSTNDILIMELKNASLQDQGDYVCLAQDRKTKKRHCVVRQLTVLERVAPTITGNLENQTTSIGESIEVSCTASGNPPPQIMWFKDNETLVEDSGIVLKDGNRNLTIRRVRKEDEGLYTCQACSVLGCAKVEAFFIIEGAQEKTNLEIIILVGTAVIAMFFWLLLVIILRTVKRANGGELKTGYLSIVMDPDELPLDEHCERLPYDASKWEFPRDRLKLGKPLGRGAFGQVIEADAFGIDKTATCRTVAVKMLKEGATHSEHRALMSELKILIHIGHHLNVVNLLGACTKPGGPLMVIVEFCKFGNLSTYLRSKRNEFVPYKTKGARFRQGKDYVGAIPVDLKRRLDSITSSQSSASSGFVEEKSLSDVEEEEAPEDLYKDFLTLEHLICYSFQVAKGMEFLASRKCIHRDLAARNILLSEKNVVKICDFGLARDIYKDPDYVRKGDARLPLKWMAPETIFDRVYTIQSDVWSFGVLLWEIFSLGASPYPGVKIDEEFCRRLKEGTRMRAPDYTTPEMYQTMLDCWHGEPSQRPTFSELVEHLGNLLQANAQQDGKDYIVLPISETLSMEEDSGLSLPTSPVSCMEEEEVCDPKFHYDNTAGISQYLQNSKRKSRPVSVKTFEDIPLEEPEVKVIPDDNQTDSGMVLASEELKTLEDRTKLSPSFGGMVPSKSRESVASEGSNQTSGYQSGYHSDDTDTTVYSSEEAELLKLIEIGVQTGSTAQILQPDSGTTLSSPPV

Consider `COc1ccc(Nc2nc3ccc(NC(=O)c4ccccc4C(=O)O)cc3[nH]c2=O)cc1` [Compound 4], for which the “inhibition percentage against VEGFR-2” value on VEGFR-2 [1] is on record as 69%.
`Cc1nc2ccccc2nc1Nc1ccc(NC(=O)Nc2ccc(Cl)cc2)cc1` [Compound VIIIc, 1-(4-Chlorophenyl)-3-(4-((3-methylquinoxalin-2-yl)amino)phenyl)urea]: in [2], the “selectivity as anti-cancer agent (in words), from WI-38 IC50” value is recorded as “moderate selectivity”. Moreover, the IC50 in data set [2] (read-out: IC50 on WI-38 cell line, MTT, normal cell line) was determined as 97.2 ± 5.66 µM; in data set [3], 2.5 µM; in data set [6], 9 µM; in data set [7] it was 22 µM. Besides, the “effect on cell cycle profile (in words)” value in the data set with HCT116 cells [4] (24 h) is listed as “increase in G1 phase”; in the data set on HCT116 cells [4] (48 h) it was “cell cycle arrest at G2/M phase boundary”. In data set [5], the “activity against the tested cell lines (in words)” value was “promising activity”. Moreover, the “anti-cancer activity against Hep G2 cell line (in words)” value in [7] is reported as “moderate activity”. Besides, in the data set on HCT116 cells [8], the “annexin-V positive cells (in words)” value is recorded as “increased the percentage of annexin-V positive cells”. For the same compound, the “activity against VEGFR-2 (in words)” value on VEGFR-2 [9] (10 µM) is listed as “weak activity”. The inhibition at 10 µM at VEGFR-2 [9] is 7%.
Compound `O=C(Nc1ccc(Cl)cc1)c1cccc(Nc2nc3ccccc3nc2Cl)c1` [Compound XVb, N-(4-Chlorophenyl)-3-((3-chloroquinoxalin-2-yl)amino)benzamide] displayed a melting point of 283 to 285 °C. Besides, half-maximal inhibition in data set [3] (IC50) required 15.5 µM. Besides, in [5], the “activity against the tested cell lines (in words)” value is “moderate to weak activities”. In data set [6], the IC50 is 21.4 µM. This compound showed an IC50 in data set [7] of 27.5 µM. For the same compound, the inhibition at 10 µM on VEGFR-2 [9] was found to be 7%.
Turning to `Cc1nc2ccccc2nc1Nc1cccc(C(=O)Nc2ccc(Cl)cc2)c1` [VIb, N-(4-Chlorophenyl)-3-((3-methylquinoxalin-2-yl)amino)benzamide], the melting point was 240 to 241 °C. This compound came in with a half-inhibitory concentration (IC50) in data set [3] of 537 µM. Further, the “activity against the tested cell lines (in words)” value in data set [5] is on record as “no significant inhibitory activity”. Moreover, the midpoint of inhibition in [6], the IC50, lay at 692 µM. For the same compound, the IC50 in [7] was 955 µM.
In the case of `COc1ccc(C(=O)Nc2ccc(Nc3nc4ccccc4nc3Cl)cc2)cc1` [XVIc, N-(4-((3-Chloroquinoxalin-2-yl)amino)phenyl)-4-methoxybenzamide], the melting point fell in the range of 235 to 236 °C. Further, in [3], the IC50 was over 1000 µM. Further, the IC50 in data set [6] is over 1000 µM. Further, in data set [7], the half-inhibitory concentration (IC50) is over 1000 µM. Also, the inhibition at 10 µM at VEGFR-2 [9] was found to be 4%.
